In the supplement of paper PMC10307832:

Assays:
Assay in all cases: relative viability (nuclei count vs DMSO), 5 days (fraction); higher = more cells survive
DM3189 + Trametinib = compound: C1CN(CCN1)C2=CC=C(C=C2)C3=CN4C(=C(C=N4)C5=CC=NC6=CC=CC=C56)N=C3 [DM3189] + CC(=O)Nc1cccc(-n2c(=O)n(C3CC3)c(=O)c3c(Nc4ccc(I)cc4F)n(C)c(=O)c(C)c32)c1 [Trametinib] (partner 0.02 µM)
Procedure, shortened: (§1)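 A single step with final 0.05% Triton X-100, 1% formaldehyde and 1 ug/ml Hoechst fixed the cells and stained nuclei 5 days after treatment. Lung cancer cell lines in 1536-well plates had been treated by pin tool the day after seeding with one drug alone or a fixed anchor-drug dose plus five library-drug doses (not always all listed) in √10 steps, and nuclei were counted on 4× images. Relative viability is the ratio of nuclei in treated wells to nuclei in vehicle wells, taken as the median of duplicate plates.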

DM3189 + Luminespib = compound: C1CN(CCN1)C2=CC=C(C=C2)C3=CN4C(=C(C=N4)C5=CC=NC6=CC=CC=C56)N=C3 [DM3189] + CCNC(=O)c1noc(-c2cc(C(C)C)c(O)cc2O)c1-c1ccc(CN2CCOCC2)cc1 [Luminespib] (partner 0.01 µM)
Procedure, shortened: as §1

DM3189 + OSI-027 = compound: C1CN(CCN1)C2=CC=C(C=C2)C3=CN4C(=C(C=N4)C5=CC=NC6=CC=CC=C56)N=C3 [DM3189] + COc1cccc2cc(-c3nc([C@H]4CC[C@H](C(=O)O)CC4)n4ncnc(N)c34)[nH]c12 [OSI-027] (partner 0.5 µM)
Procedure, shortened: as §1

DM3189 + AZD7762 = compound: C1CN(CCN1)C2=CC=C(C=C2)C3=CN4C(=C(C=N4)C5=CC=NC6=CC=CC=C56)N=C3 [DM3189] + NC(=O)Nc1cc(-c2cccc(F)c2)sc1C(=O)N[C@H]1CCCNC1 [AZD7762] (partner 0.2 µM)
Procedure, shortened: as §1

DM3189 + Vorinostat = compound: C1CN(CCN1)C2=CC=C(C=C2)C3=CN4C(=C(C=N4)C5=CC=NC6=CC=CC=C56)N=C3 [DM3189] + O=C(CCCCCCC(=O)Nc1ccccc1)NO [Vorinostat] (partner 1 µM)
Procedure, shortened: as §1

| Cell Line | relative viability (DM3189 + Trametinib; first compound 0.08 µM) | relative viability (DM3189 + Trametinib; first compound 0.253 µM) | relative viability (DM3189 + Trametinib; first compound 0.8 µM) | relative viability (DM3189 + Trametinib; first compound 2.53 µM) | relative viability (DM3189 + Luminespib; first compound 0.08 µM) | relative viability (DM3189 + Luminespib; first compound 0.253 µM) | relative viability (DM3189 + Luminespib; first compound 0.8 µM) | relative viability (DM3189 + Luminespib; first compound 2.53 µM) | relative viability (DM3189 + OSI-027; first compound 0.08 µM) | relative viability (DM3189 + OSI-027; first compound 0.253 µM) | relative viability (DM3189 + OSI-027; first compound 0.8 µM) | relative viability (DM3189 + OSI-027; first compound 2.53 µM) | relative viability (DM3189 + AZD7762; first compound 0.08 µM) | relative viability (DM3189 + AZD7762; first compound 0.253 µM) | relative viability (DM3189 + AZD7762; first compound 0.8 µM) | relative viability (DM3189 + AZD7762; first compound 2.53 µM) | relative viability (DM3189 + Vorinostat; first compound 0.08 µM) | relative viability (DM3189 + Vorinostat; first compound 0.253 µM) | relative viability (DM3189 + Vorinostat; first compound 0.8 µM) | relative viability (DM3189 + Vorinostat; first compound 2.53 µM) |
| --- | --- | --- | --- | --- | --- | --- | --- | --- | --- | --- | --- | --- | --- | --- | --- | --- | --- | --- | --- | --- |
| LK-2 | 0.586 | 0.511 | 0.638 | 0.497 | 0.188 | 0.214 | 0.145 | 0.191 | 0.193 | 0.155 | 0.159 | 0.174 | 0.252 | 0.153 | 0.225 | 0.219 | 0.292 | 0.273 | 0.213 | 0.227 |
| LOU-NH91 | 0.846 | 0.793 | 0.685 | 0.765 | 0.361 | 0.329 | 0.316 | 0.377 | 0.869 | 0.719 | 0.681 | 0.801 | 0.825 | 0.73 | 0.642 | 0.683 | 1.15 | 0.891 | 0.71 | 0.91 |
| LU99A | 0.661 | 0.533 |  | 0.634 | 0.229 | 0.19 |  | 0.23 | 0.293 | 0.299 |  | 0.308 | 0.379 | 0.362 |  | 0.283 | 0.492 | 0.434 |  | 0.458 |
| LXF-289 | 0.74 | 0.686 | 0.692 | 0.694 | 0.758 | 0.583 | 0.61 | 0.805 | 1.01 | 0.747 | 0.746 | 0.891 | 1.17 | 1.2 | 1.1 | 1.14 | 0.759 | 0.829 | 0.663 | 0.757 |
| NCI-H23 | 0.409 | 0.352 | 0.324 | 0.442 | 0.205 | 0.229 | 0.216 | 0.179 | 0.664 | 0.594 | 0.457 | 0.577 | 0.231 | 0.237 | 0.128 | 0.265 | 0.668 | 0.51 | 0.564 | 0.539 |
| NCI-H322M | 0.532 | 0.518 | 0.517 | 0.511 | 0.958 | 0.818 | 0.739 | 0.666 | 0.622 | 0.596 | 0.541 | 0.506 | 0.662 | 0.644 | 0.662 | 0.519 | 0.97 | 0.874 | 0.783 | 0.791 |
| NCI-H358 | 0.133 | 0.111 | 0.129 | 0.129 | 0.463 | 0.218 | 0.251 | 0.257 | 1.02 | 0.722 | 0.782 | 0.488 | 0.5 | 0.502 | 0.517 | 0.444 | 0.746 | 0.585 | 0.628 | 0.595 |
| NCI-H441 | 0.563 | 0.536 | 0.508 | 0.407 | 0.288 | 0.363 | 0.314 | 0.264 | 0.747 | 0.602 | 0.451 | 0.486 | 1.25 | 0.862 | 1.16 | 1.35 | 0.879 | 0.772 | 0.885 | 0.674 |
| NCI-H460 | 0.341 | 0.242 | 0.154 | 0.241 | 0.0319 | 0.0329 | 0.0354 | 0.0318 | 1.12 | 0.72 | 0.598 | 0.549 | 0.784 | 0.524 | 0.395 | 0.691 | 1.02 | 0.725 | 0.654 | 0.862 |
| NCI-H522 | 0.777 | 0.777 | 0.656 | 0.747 | 1.31 | 0.984 | 1.27 | 1.16 | 0.796 | 0.695 | 0.685 | 0.828 | 0.949 | 0.775 | 0.648 | 0.704 | 1.1 | 0.832 | 0.855 | 0.988 |
| NCI-H596 | 0.814 | 0.842 | 0.901 | 0.847 | 1.27 | 1.07 | 1.09 | 0.851 | 0.799 | 0.746 | 0.615 | 0.643 | 1.15 | 1.07 | 1.08 | 0.986 | 0.606 | 0.669 | 0.605 | 0.756 |
| NCI-H647 | 0.488 | 0.399 | 0.378 | 0.412 | 0.122 | 0.146 | 0.115 | 0.136 | 0.724 | 0.579 | 0.585 | 0.528 | 0.626 | 0.408 | 0.4 | 0.277 | 0.624 | 0.531 | 0.562 | 0.343 |
| NCI-H650 | 0.988 | 0.826 | 0.749 | 0.877 | 0.761 | 0.729 | 0.701 | 0.767 | 0.578 | 0.496 | 0.483 | 0.502 | 0.937 | 0.956 | 1.05 | 1 | 0.391 | 0.501 | 0.383 | 0.428 |
| NCI-H727 | 0.416 | 0.433 | 0.445 | 0.47 | 0.402 | 0.377 |  | 0.31 | 0.471 | 0.606 | 0.486 | 0.583 | 0.613 | 0.602 | 0.629 | 0.526 | 1.43 | 1.05 | 0.972 | 1.13 |
| NCI-H838 | 0.57 | 0.454 | 0.388 | 0.496 | 0.309 | 0.322 | 0.242 | 0.246 | 0.427 | 0.376 | 0.312 | 0.357 | 0.979 | 0.856 | 0.816 | 0.895 | 0.757 | 0.675 | 0.65 | 0.733 |
| NCI-H1355 | 0.408 | 0.429 | 0.33 | 0.421 | 0.621 | 0.674 | 0.626 | 0.602 | 0.482 | 0.36 | 0.366 | 0.39 | 0.687 | 0.813 | 0.585 | 0.648 | 0.64 | 0.636 | 0.504 | 0.565 |
| NCI-H1395 | 0.902 | 1.03 |  | 1.01 | 0.662 | 0.589 | 0.492 | 0.646 | 0.709 | 0.572 | 0.54 | 0.6 | 0.385 | 0.396 |  | 0.39 | 1.08 | 0.616 |  | 0.731 |
| NCI-H1437 | 0.63 | 0.577 | 0.65 | 0.696 | 1.15 | 1.1 | 1.1 | 1.1 | 0.895 | 0.862 | 0.906 | 1.08 | 1.14 | 1.15 | 0.969 | 1 | 0.917 | 0.916 | 0.843 | 1.05 |
| NCI-H1651 | 0.867 | 0.793 | 0.813 | 0.937 | 0.811 | 0.836 | 0.779 | 1.01 | 0.783 | 0.626 | 0.864 | 0.727 | 0.536 | 0.457 | 0.443 | 0.444 | 0.657 | 0.587 | 0.549 | 0.629 |
| NCI-H1666 | 1.03 | 0.951 | 0.863 |  | 1.15 | 0.983 | 1.05 | 1.07 | 1.01 | 0.941 | 1.1 | 1.01 | 1.11 | 0.812 | 0.878 | 0.941 | 1.04 | 1.02 | 1.09 |  |
| NCI-H1734 | 0.651 | 0.623 | 0.652 | 0.685 | 0.202 | 0.226 | 0.207 | 0.199 | 0.684 | 0.572 | 0.592 | 0.565 | 0.6 | 0.573 | 0.511 | 0.383 | 0.842 | 0.805 | 0.718 | 0.59 |
| NCI-H1755 | 0.786 | 0.801 | 0.725 | 0.836 | 0.384 | 0.476 | 0.425 | 0.419 | 0.732 | 0.688 | 0.574 | 0.786 | 0.482 | 0.455 | 0.615 | 0.372 | 0.771 | 0.659 | 0.695 | 0.685 |
| NCI-H1793 | 0.507 | 0.603 | 0.532 | 0.742 | 0.184 | 0.196 | 0.171 | 0.174 | 0.279 | 0.247 | 0.245 | 0.319 | 0.524 | 0.519 | 0.273 | 0.347 | 0.993 | 0.633 | 0.911 | 1.12 |
| NCI-H1915 | 0.325 | 0.292 | 0.305 | 0.307 | 0.697 | 0.817 | 0.606 | 0.485 | 0.823 | 0.62 | 0.543 | 0.553 | 0.708 | 0.639 | 0.521 | 0.637 | 0.49 | 0.508 | 0.383 | 0.482 |
| NCI-H1944 | 0.463 | 0.422 | 0.42 | 0.413 | 0.813 | 0.673 |  | 0.684 | 0.513 | 0.397 |  | 0.461 | 0.547 | 0.55 | 0.576 | 0.446 | 0.592 | 0.567 | 0.467 | 0.565 |
| NCI-H1975 | 0.37 | 0.367 | 0.316 | 0.299 | 0.302 | 0.254 | 0.162 | 0.263 | 1 | 0.627 | 0.666 | 0.514 | 0.757 | 0.682 | 0.522 | 0.625 | 0.803 | 0.732 | 0.701 | 0.687 |
| NCI-H1993 | 0.504 | 0.501 | 0.641 | 0.486 | 0.785 | 0.705 | 0.712 | 0.885 | 0.541 | 0.49 | 0.476 | 0.506 | 0.824 | 0.776 | 0.653 | 0.643 | 0.856 | 0.803 | 0.813 | 0.854 |
